Measurements: PMC10794144, “A novel antibiotic class targeting the lipopolysaccharide transporter” (Nature, 2024)
Like-named read-outs stand apart in the source and are kept apart here.

Assays:
A. baumannii = assay: microbe, parasite or virus in culture; conditions: Acinetobacter baumannii, 100%
Summary of the method: (§1)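 Standard broth microdilution per CLSI; diluted 0.5 McFarland inocula in cation-adjusted Mueller-Hinton broth; visual or OD600 endpoint.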

[1] = test system: K. pneumoniae ATCC 700603; assay: microbe, parasite or virus in culture; conditions: Klebsiella pneumoniae
Summary of the method: as §1

Measured: MIC

C[C@@H](O)[C@H]1C(=O)N2C(C(=O)O)=C(S[C@@H]3CN[C@H](C(=O)N(C)C)C3)[C@H](C)[C@H]12 [meropenem, reference compound]
32 µg/mL: A. baumannii; read-out: MIC 100%, ROB08708, Study ROC009 | A. baumannii; read-out: MIC 100%, ROB08708, Study ROC013 | A. baumannii; read-out: MIC 100%, ROB08709, Study LGC277937 | A. baumannii; read-out: MIC 100%, ROB08709, Study LGC279800 | A. baumannii; read-out: MIC 100%, ROB08709, Study LGC281440 | A. baumannii; read-out: MIC 100%, ROB08709, Study LGC282623 | A. baumannii; read-out: MIC 100%, ROB08709, Study LGC283932 | A. baumannii; read-out: MIC 100%, ROB08709, Study LGC284200 | A. baumannii; read-out: MIC 100%, ROB08709, Study LGC284879 | A. baumannii; read-out: MIC 100%, ROB08709, Study LGC285582 | A. baumannii; read-out: MIC 100%, ROB08709, Study LGC286210 | A. baumannii; read-out: MIC 100%, ROB08709, Study LGC293598 | A. baumannii; read-out: MIC 100%, ROB08709, Study LGC294355 | A. baumannii; read-out: MIC 100%, ROB08709, Study LGC299544 | A. baumannii; read-out: MIC 100%, ROB08709, Study LGC308175 | A. baumannii; read-out: MIC 100%, ROB08709, Study ROC013 | A. baumannii; read-out: MIC 100%, ROB08710, Study LGC281440 | A. baumannii; read-out: MIC 100%, ROB08710, Study LGC282623 | A. baumannii; read-out: MIC 100%, ROB08710, Study LGC283932 | A. baumannii; read-out: MIC 100%, ROB08710, Study LGC284200 | A. baumannii; read-out: MIC 100%, ROB08710, Study LGC284879 | A. baumannii; read-out: MIC 100%, ROB08710, Study LGC285582 | A. baumannii; read-out: MIC 100%, ROB08710, Study LGC286210 | A. baumannii; read-out: MIC 100%, ROB08710, Study LGC293598 | A. baumannii; read-out: MIC 100%, ROB08710, Study LGC294355 | A. baumannii; read-out: MIC 100%, ROB08710, Study LGC296813 | A. baumannii; read-out: MIC 100%, ROB08710, Study LGC301026 | A. baumannii; read-out: MIC 100%, ROB08710, Study LGC308175 | A. baumannii; read-out: MIC 100%, ROB08710, Study ROC004 | A. baumannii; read-out: MIC 100%, ROB08710, Study ROC005 | A. baumannii; read-out: MIC 100%, ROB08710, Study ROC008 | A. baumannii; read-out: MIC 100%, ROB08710, Study ROC010 | A. baumannii; read-out: MIC 100%, ROB08710, Study ROC012 | A. baumannii; read-out: MIC 100%, ROB08710, Study ROC013
≤ 0.06 µg/mL: [1]; ATCC700603, CAMHB, mode of at least three replicates (RO7036668 one replicate) | [1]; ATCC700603, read-out: MIC 100%, Study LGC277937, 100% | [1]; ATCC700603, read-out: MIC 100%, Study LGC279800, 100% | [1]; ATCC700603, read-out: MIC 100%, Study LGC281440, 100% | [1]; ATCC700603, read-out: MIC 100%, Study LGC282160, 100% | [1]; ATCC700603, read-out: MIC 100%, Study LGC282623, 100% | [1]; ATCC700603, read-out: MIC 100%, Study LGC283932, 100% | [1]; ATCC700603, read-out: MIC 100%, Study LGC284200, 100% | [1]; ATCC700603, read-out: MIC 100%, Study LGC284879, 100% | [1]; ATCC700603, read-out: MIC 100%, Study LGC285582, 100% | [1]; ATCC700603, read-out: MIC 100%, Study LGC286210, 100% | [1]; ATCC700603, read-out: MIC 100%, Study LGC293598, 100% | [1]; ATCC700603, read-out: MIC 100%, Study LGC294355, 100% | [1]; ATCC700603, read-out: MIC 100%, Study LGC295147, 100% | [1]; ATCC700603, read-out: MIC 100%, Study LGC296813, 100% | [1]; ATCC700603, read-out: MIC 100%, Study LGC299544, 100% | [1]; ATCC700603, read-out: MIC 100%, Study LGC301026, 100% | [1]; ATCC700603, read-out: MIC 100%, Study LGC308175, 100% | [1]; ATCC700603, read-out: MIC 100%, Study ROC003, 100% | [1]; ATCC700603, read-out: MIC 100%, Study ROC004, 100% | [1]; ATCC700603, read-out: MIC 100%, Study ROC005, 100% | [1]; ATCC700603, read-out: MIC 100%, Study ROC006, 100% | [1]; ATCC700603, read-out: MIC 100%, Study ROC007, 100% | [1]; ATCC700603, read-out: MIC 100%, Study ROC010, 100% | [1]; ATCC700603, read-out: MIC 100%, Study ROC012, 100% | [1]; ATCC700603, read-out: MIC 100%, Study ROC013, 100%
64 µg/mL: A. baumannii; read-out: MIC 100%, ROB08708, Study ROC006 | A. baumannii; read-out: MIC 100%, ROB08709, Study ROC004 | A. baumannii; read-out: MIC 100%, ROB08709, Study ROC006 | A. baumannii; read-out: MIC 100%, ROB08710, Study LGC277937 | A. baumannii; read-out: MIC 100%, ROB08710, Study LGC279800 | A. baumannii; read-out: MIC 100%, ROB08710, Study LGC282160 | A. baumannii; read-out: MIC 100%, ROB08710, Study LGC295147 | A. baumannii; read-out: MIC 100%, ROB08710, Study LGC299544 | A. baumannii; read-out: MIC 100%, ROB08710, Study ROC006 | A. baumannii; read-out: MIC 100%, ROB08710, Study ROC007 | A. baumannii; read-out: MIC 100%, ROB08710, Study ROC009
16 µg/mL: A. baumannii; read-out: MIC 100%, ROB08708, Study ROC007 | A. baumannii; read-out: MIC 100%, ROB08708, Study ROC008 | A. baumannii; read-out: MIC 100%, ROB08708, Study ROC010 | A. baumannii; read-out: MIC 100%, ROB08708, Study ROC012 | A. baumannii; read-out: MIC 100%, ROB08709, Study LGC282160 | A. baumannii; read-out: MIC 100%, ROB08709, Study LGC295147 | A. baumannii; read-out: MIC 100%, ROB08709, Study LGC296813 | A. baumannii; read-out: MIC 100%, ROB08709, Study LGC301026 | A. baumannii; read-out: MIC 100%, ROB08709, Study ROC005 | A. baumannii; read-out: MIC 100%, ROB08709, Study ROC007 | A. baumannii; read-out: MIC 100%, ROB08709, Study ROC008 | A. baumannii; read-out: MIC 100%, ROB08709, Study ROC009 | A. baumannii; read-out: MIC 100%, ROB08709, Study ROC010 | A. baumannii; read-out: MIC 100%, ROB08709, Study ROC012
0.06 µg/mL: [1]; ATCC700603, read-out: MIC 100%, Study ROC009, 100%
0.12 µg/mL: [1]; ATCC700603, read-out: MIC 100%, Study ROC008, 100%
